Reference: patent US9181239B2, “Pyridopyrimidinone inhibitors of kinases” (AbbVie Inc., priority 2011, dated 2015)

target: T1, Wee1 kinase (Homo sapiens, UniProt P30291); test: Wee1 time-resolved fluorescence equilibrium binding assay (probe displacement); details: GST-tagged-Wee1 kinase 2 nM, fluorescent probe 300 nM, 1 hour incubation; read-out: Wee-1 binding (Ki nM)
T1 construct: purchased Carnabio 05-177
Procedure: Wee1 kinase was assayed using a time-resolved fluorescence equilibrium binding assay monitoring displacement of a rapidly reversible Oregon Green-labeled ATP-competitive kinase probe (N-(2-(2-(2-(4-(4-(5-chloro-4-(2-(1-hydroxycyclobutyl)thiazol-5-yl)-1H-pyrrolo[2,3-b]pyridin-2-yl)phenyl)piperazin-1-yl)ethoxy)ethoxy)ethyl)-2′,7′-difluoro-3′,6′-dihydroxy-3-oxo-3H-spiro[isobenzofuran-1,9′-xanthene]-5-carboxamide) by competitive Wee1 inhibitors.

T1 sequence (P30291 whole entry): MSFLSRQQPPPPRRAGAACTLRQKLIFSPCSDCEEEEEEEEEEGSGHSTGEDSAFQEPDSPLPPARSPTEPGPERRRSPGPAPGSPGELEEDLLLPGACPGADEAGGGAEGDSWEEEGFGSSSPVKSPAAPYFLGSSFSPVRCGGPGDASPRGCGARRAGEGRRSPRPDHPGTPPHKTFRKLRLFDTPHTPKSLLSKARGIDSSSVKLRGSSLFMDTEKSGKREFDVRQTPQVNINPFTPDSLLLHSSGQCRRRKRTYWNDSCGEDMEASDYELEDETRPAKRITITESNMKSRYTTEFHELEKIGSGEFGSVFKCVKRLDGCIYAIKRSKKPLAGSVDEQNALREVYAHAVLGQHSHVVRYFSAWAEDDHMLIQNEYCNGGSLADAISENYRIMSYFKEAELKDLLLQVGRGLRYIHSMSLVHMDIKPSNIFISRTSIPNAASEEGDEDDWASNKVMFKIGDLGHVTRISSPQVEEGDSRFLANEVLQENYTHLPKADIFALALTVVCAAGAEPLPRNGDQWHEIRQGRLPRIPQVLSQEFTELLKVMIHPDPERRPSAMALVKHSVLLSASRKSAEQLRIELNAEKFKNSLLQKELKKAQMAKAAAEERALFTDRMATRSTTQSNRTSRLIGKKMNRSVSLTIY

| Ki [nM] | SMILES |
| --- | --- |
| 0.7 | Cn1cc(-c2c(Cl)cccc2Cl)c(=O)c2cnc(Nc3ccc(N[C@@H]4CCNC4)cc3)nc21 [Example 63, 6-(2,6-dichlorophenyl)-8-methyl-2-({4-[(3R)-pyrrolidin-3-ylamino]phenyl}amino)pyrido[2,3-d]pyrimidin-5(8H)-one] |
| 0.4 | Cn1cc(-c2c(Cl)cccc2Cl)c(=O)c2cnc(Nc3ccc(N[C@H]4CCNC4)cc3)nc21 [Example 64, 6-(2,6-dichlorophenyl)-8-methyl-2-({4-[(3S)-pyrrolidin-3-ylamino]phenyl}amino)pyrido[2,3-d]pyrimidin-5(8H)-one] |
| 0.3 | Cn1cc(-c2c(Cl)cccc2Cl)c(=O)c2cnc(Nc3ccc4c(c3)CNC4(C)C)nc21 [Example 65, 6-(2,6-dichlorophenyl)-2-[(1,1-dimethyl-2,3-dihydro-1H-isoindol-5-yl)amino]-8-methylpyrido[2,3-d]pyrimidin-5(8H)-one] |
| 0.4 | Cn1cc(-c2c(Cl)cccc2Cl)c(=O)c2cnc(Nc3ccc(NC4CCNCC4)cc3)nc21 [Example 66, 6-(2,6-dichlorophenyl)-8-methyl-2-{[4-(piperidin-4-ylamino)phenyl]amino}pyrido[2,3-d]pyrimidin-5(8H)-one] |
| 0.5 | CN1CCC(Nc2ccc(Nc3ncc4c(=O)c(-c5c(Cl)cccc5Cl)cn(C)c4n3)cc2)C1 (centres unmarked) [Example 67, 6-(2,6-dichlorophenyl)-8-methyl-2-({4-[(1-methylpyrrolidin-3-yl)amino]phenyl}amino)pyrido[2,3-d]pyrimidin-5(8H)-one] |
| 0.4 | CN1CCC(Oc2ccc(Nc3ncc4c(=O)c(-c5c(Cl)cccc5Cl)cn(C)c4n3)cc2)CC1 [Example 68, 6-(2,6-dichlorophenyl)-8-methyl-2-({4-[(1-methylpiperidin-4-yl)oxy]phenyl}amino)pyrido[2,3-d]pyrimidin-5(8H)-one] |
| 3 | CN1CCC(Nc2ccc(Nc3ncc4c(=O)c(-c5c(F)cccc5Cl)cn(C)c4n3)cc2)CC1 [Example 69, 6-(2-chloro-6-fluorophenyl)-8-methyl-2-({4-[(1-methylpiperidin-4-yl)amino]phenyl}amino)pyrido[2,3-d]pyrimidin-5(8H)-one] |
| 0.2 | CN1Cc2cc(Nc3ncc4c(=O)c(-c5c(F)cccc5Cl)cn(C)c4n3)ccc2C1(C)C [Example 70, 6-(2-chloro-6-fluorophenyl)-8-methyl-2-[(1,1,2-trimethyl-2,3-dihydro-1H-isoindol-5-yl)amino]pyrido[2,3-d]pyrimidin-5(8H)-one] |
| 0.7 | COC(=O)c1cc(Nc2ncc3c(=O)c(-c4c(Cl)cccc4Cl)cn(C)c3n2)ccc1N1CCN(C)CC1 [Example 71, methyl 5-{[6-(2,6-dichlorophenyl)-8-methyl-5-oxo-5,8-dihydropyrido[2,3-d]pyrimidin-2-yl]amino}-2-(4-methylpiperazin-1-yl)benzoate] |
| 0.5 | CN(C)C1CCN(C2Cc3ccc(Nc4ncc5c(=O)c(-c6c(Cl)cccc6Cl)cn(C)c5n4)cc3C2)CC1 (centres unmarked) [Example 72, 6-(2,6-dichlorophenyl)-2-({2-[4-(dimethylamino)piperidin-1-yl]-2,3-dihydro-1H-inden-5-yl}amino)-8-methylpyrido[2,3-d]pyrimidin-5(8H)-one] |
| 2.8 | Cn1cc(-c2c(F)cccc2Cl)c(=O)c2cnc(Nc3ccc(NC4CCNCC4)cc3)nc21 [Example 73, 6-(2-chloro-6-fluorophenyl)-8-methyl-2-{[4-(piperidin-4-ylamino)phenyl]amino}pyrido[2,3-d]pyrimidin-5(8H)-one] |
| 1.2 | Cn1cc(-c2c(F)cccc2Cl)c(=O)c2cnc(Nc3ccc4c(c3)CNCC4)nc21 [Example 74, 6-(2-chloro-6-fluorophenyl)-8-methyl-2-(1,2,3,4-tetrahydroisoquinolin-7-ylamino)pyrido[2,3-d]pyrimidin-5(8H)-one] |
| 1.3 | Cn1cc(-c2c(F)cccc2Cl)c(=O)c2cnc(Nc3ccc4c(c3)CCNC4)nc21 [Example 75, 6-(2-chloro-6-fluorophenyl)-8-methyl-2-(1,2,3,4-tetrahydroisoquinolin-6-ylamino)pyrido[2,3-d]pyrimidin-5(8H)-one] |
| 0.7 | Cn1cc(-c2c(Cl)cccc2Cl)c(=O)c2cnc(Nc3ccc(N[C@H]4CC[C@H](N(C)C)CC4)cc3)nc21 [Example 76, 6-(2,6-dichlorophenyl)-2-[(4-{[trans-4-(dimethylamino)cyclohexyl]amino}phenyl)amino]-8-methylpyrido[2,3-d]pyrimidin-5(8H)-one] |
| 0.5 | Cn1cc(-c2c(Cl)cccc2Cl)c(=O)c2cnc(Nc3ccc(N[C@H]4CC[C@@H](N(C)C)CC4)cc3)nc21 [Example 77, 6-(2,6-dichlorophenyl)-2-[(4-{[cis-4-(dimethylamino)cyclohexyl]amino}phenyl)amino]-8-methylpyrido[2,3-d]pyrimidin-5(8H)-one] |
| 1.2 | CN(C)CCCN1CCN(c2ccc(Nc3ncc4c(=O)c(-c5c(Cl)cccc5Cl)cn(C)c4n3)cc2)CC1 [Example 78, 6-(2,6-dichlorophenyl)-2-[(4-{4-[3-(dimethylamino)propyl]piperazin-1-yl}phenyl)amino]-8-methylpyrido[2,3-d]pyrimidin-5(8H)-one] |
| 0.8 | CN(C)CCN1CCN(c2ccc(Nc3ncc4c(=O)c(-c5c(Cl)cccc5Cl)cn(C)c4n3)cc2)CC1 [Example 79, 6-(2,6-dichlorophenyl)-2-[(4-{4-[2-(dimethylamino)ethyl]piperazin-1-yl}phenyl)amino]-8-methylpyrido[2,3-d]pyrimidin-5(8H)-one] |
